Assay results taken from patent US11584801B2, “Anti-5T4 antibodies and antibody-drug conjugates” (Byondis B.V., priority 2015, dated 2023).

B1: 899 chimeric (conjugate)
VH: QSVEESGGRLVTPGTPLTLTCTVSGFSLSSYTMSWVRQACGKGLEYIGIISSSDGTWYANWVKGRFTISKTSTTVDLKMTSLTTEDTATYFCARDGTGNKYYTWDRLDLWGQGTLVTVSS
VL: NIVMTQTPSPVSGAVGGTVTINCQASQSIYNELSWYQQKPGQPPKLLIYYASTLASGVSSRFKGSGSGTQFTLTISGVESVDAATYYCQQGYSSSNVDNVFGGGTEVVVK

Columns and labels:
[1] = system: MDA-MB-468 cells; assay: In vitro cytotoxicity in MDA-MB-468 cells; format: cell-based, human
[2] = system: PA-1 cells; assay: In vitro cytotoxicity in PA-1 cells; format: cell-based, human
[3] = Hydrophobicity by analytical HIC; format: physicochemical
Description: For analytical HIC, 5-10 μl of sample (1 mg/ml) was injected onto a TSKgel Butyl-NPR column (4.6 mm ID×3.5 cm L, Tosoh Bioscience, cat. nr. 14947). The elution method consisted of a linear gradient from 100% Buffer A (25 mM sodium phosphate, 1.5 M ammonium sulphate, pH 6.95) to 100% of Buffer B (25 mM sodium phosphate, pH 6.95, 20% isopropanol) at 0.4 ml/min over 20 minutes. A Waters Acquity H-Class UPLC system equipped with PDA-detector and Empower software was used. Absorbance was measured at 214 nm and the retention time of ADCs was determined.

Row | Molecule | IC50 [1] | MDA-MB-468 Efficacy [1] | IC50 [2] | RTDAR0 ([3]; analytical HIC retention time of DAR0 species) | RTDAR2 ([3]; analytical HIC retention time of DAR2 species) | RTDAR2 − RTDAR0 ([3]; increase in HIC retention time upon conjugation of two linker drugs)
1 | Rituximab-vc-seco-DUBA: non-binding control ADC | 0.0329 µM | 91% | 0.00832 µM |  |  | 
2 | B1 |  |  |  | 6.5 | 10.3 | 3.8
